Results: US20250197351A1, “C4-CARBOXYLIC ACID-S[…] DERIVATIVES AND METHODS OF USING” (priority 2022, published 2025)
Values joined by “and” are separate entries in the source; they are usually repeats but may differ in a detail not shown here. Equal values may be shown once.

Assays:
5-HT1A receptor = molecular target: T1, 5-HT1A receptor (Homo sapiens, UniProt P08908); assay: cAMP-Glo assay of 5-HT1A receptor modulation, CHO-K1/5-HT1A/Ga15 (+5-HT1A) vs CHO-K1/Ga15 (−5-HT1A) cells; assay type: cell-based; conditions: +5-HT1A vs −5-HT1A CHO-K1 cells; 4 μM forskolin; increasing ligand concentration
T1 construct: host or cells: CHO-K1 (co-expressing Ga15)
T1 sequence (P08908 1-422): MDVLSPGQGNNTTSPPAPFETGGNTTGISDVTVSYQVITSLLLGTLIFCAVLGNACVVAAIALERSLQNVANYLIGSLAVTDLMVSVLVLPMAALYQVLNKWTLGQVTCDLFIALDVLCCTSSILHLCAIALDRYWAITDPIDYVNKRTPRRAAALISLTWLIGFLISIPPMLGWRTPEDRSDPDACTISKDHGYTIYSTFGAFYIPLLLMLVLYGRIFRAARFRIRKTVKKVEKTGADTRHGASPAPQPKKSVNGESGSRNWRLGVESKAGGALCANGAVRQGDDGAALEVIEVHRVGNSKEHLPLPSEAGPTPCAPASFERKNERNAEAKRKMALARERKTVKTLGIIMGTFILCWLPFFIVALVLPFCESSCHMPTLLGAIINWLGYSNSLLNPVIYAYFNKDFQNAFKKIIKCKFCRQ

[1] = Mouse pharmacokinetic (PK) study, parent compound and psilocin metabolite in plasma; assay type: in vivo; conditions: for Plasma concentration of psilocin: LLOQ 0.5 ng/mL; for Plasma concentration of C(XX): LLOQ 0.25 ng/mL; for Plasma concentration: parent C(XX), BLQ = below 0.25 ng/mL; for AUC0-tlast/Dose of C(XX) / Cmax/Dose of C(XX) / AUC0-inf/Dose of C(XX): plasma
Text: Briefly, the procedure was as follows. […] 19, 2022.

[2] = molecular target: T2, 5-HT2A receptor (5-HT2AR) (Mus musculus, UniProt P35363); assay: Drug-induced Head Twitch Response (HTR); assay type: in vivo; conditions: 1 mg/kg i.p., 15-to-30-minute window post-drug, relative to vehicle
T2 construct: host or cells: C57BL/6 mice, in vivo (neuronal receptor)

[3] = 3 mg/kg oral C(XX), 24 h, individual mice
[4] = 10 mg/kg oral C(XX), 24 h, individual mice
[5] = 3 mg/kg oral C(XX), individual mice, 3 mg/kg
[6] = 10 mg/kg oral C(XX), individual mice, 10 mg/kg

T2 sequence (P35363 whole entry): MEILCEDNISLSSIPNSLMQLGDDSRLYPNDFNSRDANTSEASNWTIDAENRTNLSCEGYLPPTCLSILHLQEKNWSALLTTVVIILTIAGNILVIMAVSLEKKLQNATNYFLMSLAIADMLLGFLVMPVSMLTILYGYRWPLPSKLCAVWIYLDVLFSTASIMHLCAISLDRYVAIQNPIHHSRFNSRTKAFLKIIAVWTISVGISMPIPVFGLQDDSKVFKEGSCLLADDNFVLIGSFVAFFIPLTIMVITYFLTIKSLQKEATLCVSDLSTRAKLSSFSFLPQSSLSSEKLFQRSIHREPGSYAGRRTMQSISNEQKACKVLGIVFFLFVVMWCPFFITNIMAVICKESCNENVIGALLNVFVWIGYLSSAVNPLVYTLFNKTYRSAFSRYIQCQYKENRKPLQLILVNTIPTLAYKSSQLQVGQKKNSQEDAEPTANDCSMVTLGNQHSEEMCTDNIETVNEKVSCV

For `CN(C)CCc1c[nH]c2cccc(OC(=O)c3cccc4c3OCCO4)c12` [C(XX)], the “5-HT1A receptor modulation (reduction of forskolin-induced cAMP)” value (5-HT1A receptor) was “significant receptor modulation”, the “Plasma concentration of psilocin” value ([1]; 1 mg/kg i.v. C(XX), 8 h, individual mice) was “BLQ” and the “Plasma concentration of psilocin” value ([1]; 1 mg/kg oral C(XX), 24 h, individual mice) was “BLQ”. The “Plasma concentration of C(XX)” value ([1]; 3 mg/kg oral C(XX), 0.25 h, individual mice) was 1.72 ng/mL, the “Plasma concentration of C(XX)” value ([1]; 3 mg/kg oral C(XX), 0.5 h, individual mice) was 1.13 ng/mL and the “Plasma concentration of C(XX)” value ([1]; 3 mg/kg oral C(XX), 4 h, individual mice) was “No Peak (2×) and BLQ”. The “Plasma concentration of C(XX)” value ([1]; 3 mg/kg oral C(XX), 6 h, individual mice) was “No Peak and BLQ (2×)”, the “Plasma concentration of C(XX)” value ([1]; 3 mg/kg oral C(XX), 8 h, individual mice) was “No Peak and BLQ (2×)” and the “Plasma concentration of C(XX)” value [1, 3] was “No Peak”. For the same compound, the “Plasma concentration of psilocin” value [1, 3] was “BLQ”, the “F of C(XX)” value ([1]; 3 mg/kg oral C(XX), individual mice) was 0.816% and 1.08% and 0.962% and the “F of C(XX)” value ([1]; 3 mg/kg oral C(XX), mean) was 0.953 ± 0.132%. The “Plasma concentration of C(XX)” value ([1]; 10 mg/kg oral C(XX), 0.25 h, individual mice) was 10.3 ng/mL, the “Plasma concentration of C(XX)” value ([1]; 10 mg/kg oral C(XX), 2 h, individual mice) was 1.08 ng/mL and the “Plasma concentration of C(XX)” value ([1]; 10 mg/kg oral C(XX), 4 h, individual mice) was “BLQ”. For the same compound, the “Plasma concentration of C(XX)” value ([1]; 10 mg/kg oral C(XX), 6 h, individual mice) was “BLQ”, the “Plasma concentration of C(XX)” value ([1]; 10 mg/kg oral C(XX), 8 h, individual mice) was “BLQ” and the “Plasma concentration of C(XX)” value [1, 4] was “No Peak”. For the same compound, the “Plasma concentration of psilocin” value [1, 4] was “BLQ”, the Plasma concentration ([1]; 1 mg/kg i.v., 2 h, each animal, 1 mg/kg) was 1.14 ng/mL and the Plasma concentration ([1]; 1 mg/kg i.v., 6 h, each animal) was “BLQ”. The Plasma concentration ([1]; 1 mg/kg i.v., 8 h, each animal, 1 mg/kg) was “BLQ and No (2×)”, the Plasma concentration ([1]; 1 mg/kg p.o., 2 h, each animal) was “BLQ” and the Plasma concentration ([1]; 1 mg/kg p.o., 4 h, each animal) was “BLQ”. The Plasma concentration ([1]; 1 mg/kg p.o., 6 h, each animal, 1 mg/kg) was “No Peak (2×) and BLQ”, the Plasma concentration ([1]; 1 mg/kg p.o., 8 h, each animal, 1 mg/kg) was “No Peak (2×) and BLQ” and the Plasma concentration ([1]; 1 mg/kg p.o., 24 h, each animal) was “No Peak”. The AUC0-tlast/Dose ([1]; parent compound in plasma, 1 mg/kg i.v., each animal, 1 mg/kg) was 48.0 kg·ng·h/mL/mg, the “AUC0-tlast/Dose of C(XX)” value ([1]; 1 mg/kg i.v. C(XX), mean) was 52.8 ± 8.30 kg·ng·h/mL/mg and the “Cmax/Dose of C(XX)” value ([1]; 1 mg/kg p.o. C(XX), mean) was 0.620 ± 0.0996 kg·ng/mL/mg. The “AUC0-inf/Dose of C(XX)” value [1, 5] was 0.433 kg·ng·h/mL/mg and 0.572 kg·ng·h/mL/mg and 0.510 kg·ng·h/mL/mg, the “AUC0-tlast/Dose of C(XX)” value [1, 5] was 0.406 kg·ng·h/mL/mg and 0.494 kg·ng·h/mL/mg and 0.474 kg·ng·h/mL/mg and the “Cmax/Dose of C(XX)” value [1, 5] was 0.497 kg·ng/mL/mg and 0.573 kg·ng/mL/mg and 0.643 kg·ng/mL/mg. For the same compound, the “AUC0-inf/Dose of C(XX)” value ([1]; 3 mg/kg oral C(XX), mean) was 0.505 ± 0.0700 kg·ng·h/mL/mg, the “AUC0-tlast/Dose of C(XX)” value ([1]; 3 mg/kg oral C(XX), mean) was 0.458 ± 0.0457 kg·ng·h/mL/mg and the “Cmax/Dose of C(XX)” value ([1]; 3 mg/kg oral C(XX), mean) was 0.571 ± 0.0734 kg·ng/mL/mg. For the same compound, the “AUC0-tlast/Dose of C(XX)” value [1, 6] was 0.565 kg·ng·h/mL/mg and 0.499 kg·ng·h/mL/mg and 0.916 kg·ng·h/mL/mg, the “Cmax/Dose of C(XX)” value [1, 6] was 0.299 kg·ng/mL/mg and 0.912 kg·ng/mL/mg and 1.03 kg·ng/mL/mg and the “AUC0-tlast/Dose of C(XX)” value ([1]; 10 mg/kg oral C(XX), mean) was 0.660 ± 0.224 kg·ng·h/mL/mg. For the same compound, the “Cmax/Dose of C(XX)” value ([1]; 10 mg/kg oral C(XX), mean) was 0.747 ± 0.392 kg·ng/mL/mg and the “Head Twitch Response (HTR) incidence” value [2] was “Elevated incidences of HTR”.

With `COCCOCCOCC(=O)Oc1cccc2[nH]cc(CCN(C)C)c12` [C(III)] the “5-HT1A receptor modulation (reduction of forskolin-induced cAMP)” value (5-HT1A receptor) was “significant receptor modulation” and the “Head Twitch Response (HTR) incidence” value [2] was “Elevated incidences of HTR”.

With `NCCc1c[nH]c2ccc(O)cc12` [serotonin, reference compound] the “5-HT1A receptor modulation (reduction of forskolin-induced cAMP)” value (5-HT1A receptor) was “reduction in cAMP levels”.

For `CN(C)CCc1c[nH]c2cccc(OC(=O)c3cccc(C(=O)Oc4cccc5[nH]cc(CCN(C)C)c45)c3)c12` [C(VII)], the “5-HT1A receptor modulation (reduction of forskolin-induced cAMP)” value (5-HT1A receptor) was “no significant receptor modulation” and the “Head Twitch Response (HTR) incidence” value [2] was “Elevated incidences of HTR”.

With `COC(=O)c1cccc(C(=O)Oc2cccc3[nH]cc(CCN(C)C)c23)c1` [C(XLIII)] the “5-HT1A receptor modulation (reduction of forskolin-induced cAMP)” value (5-HT1A receptor) was “receptor modulation at higher ligand concentrations”.
